Source: US6489304B2, “Hyperstructure-forming carriers” (Hybridon, Inc., priority 1997, dated 2002)

Assays:
[1] = Plasma pharmacokinetics of [35S]-labeled PS-oligonucleotides after i.v. bolus administration; format: in vivo; conditions: rats, 10 mg/kg i.v.; for maximum plasma concentration (Cmax): radioactivity, compared with Oligonucleotide HYB0413
Source text: (§1) To carry out pharmacokinetic studies, [^35S]-labeled PS-oligonucleotides were synthesized using phosphoramidite chemistry; the intermediate phosphite linkage was oxidized with [^35S8] to incorporate [^35S]. (Agrawal, et al., Synthetic Methods for the Radioisotopic Labeling of Oligonucleotides, in: Antisense Oligonucleotide from Technology to Therapy (Schlingensiepen, ed.) Blackwell, Berlin, pp. 60-77 (1996)). [^35S] was incorporated at the fifth (oligonucleotide HYB0411) or fourth (oligonucleotide HYB0412 and HYB0413) internucleotide linkage.
(§2) A dose of 10 mg/kg of [^35S]-labeled PS-oligonucleotide was administered intravenously (i.v.) to rats (Wistar rats from Charles River, Wilmington, Mass.). Following administration, plasma was collected after 5, 15 and 30 minutes and after 1, 3, 6, 12, 24 and 48 hours. Radioactivity levels were measured to monitor plasma clearance at each time point. Following administration of PS-oligonucleotide, animals (3 rats/group) were sacrificed at 12, 24 and 48 hours. The following tissues were removed and homogenized: muscle, lung, liver, kidney, and spleen. Radioactive levels were measured, to monitor tissue distribution of each of the oligonucleotides. To follow the excretion of PS-oligonucleotides, urine and feces were collected using metabolism cages at 0-3, 3-6, 6-12, 12-24 and 24-48 hour intervals and radioactivity levels were measured using the methods previously reported (Zhang, et al., Biochem. Pharmacol., 49: 929-939 (1995)).
FIG. 3 illustrates the plasma concentration-time courses of oligonucleotide equivalents after i.v. bolus administration of radiolabeled oligonucleotides into rats, based on quantification of radioactivity. As shown in previous studies (Agrawal, et al., Clin. Pharm. 28:7-16 (1995); Zhang, et al., Biochem. Pharmacol., 49: 929-939 (1995)), PS-oligonucleotides rapidly clear from the plasma. […] No significant difference in plasma elimination half-life (t½β) was observed.

[2] = Tissue distribution of radioactivity after i.v. bolus administration of radiolabeled oligonucleotides; format: in vivo; conditions: rats
Source text: as §1, §2
The oligonucleotide-equivalent concentrations of radioactivity in tissues after i.v. bolus administration of radiolabeled oligonucleotides to rats are shown in FIGS. 4-8. […] Significant differences in distribution pattern were found among the three oligonucleotides. […] Oligonucleotide HYB0411 had the highest kidney concentration: 40% higher than that of Oligonucleotides HYB0412 and HYB0413.

[3] = Cumulative urinary and fecal excretion of radioactivity over 48 hours; format: in vivo; conditions: rats, 10 mg/kg i.v., rank among the three oligonucleotides
Experimental: as §2
FIGS. 9 and 10 show the cumulative excretion of urinary and fecal radioactivity over 48 hours following administration of radiolabeled oligonucleotides. Urinary excretion represented the major pathway of elimination. […] Oligonucleotide HYB0411 had the lowest urinary excretion rate and Oligonucleotide HYB0413 had the highest urinary excretion rate. Fecal excretion was a minor pathway of elimination (FIG. 11); Oligonucleotide HYB0413 had the highest fecal excretion rate.

[4] = Chemical forms of radioactivity in tissues by polyacrylamide gel electrophoresis (in vivo stability); conditions: rats

Substance	maximum plasma concentration (Cmax) [1]	distribution half-life (t½α) ([1]; compared with Oligonucleotides HYB0412 and HYB0413)	liver concentration, higher than Oligonucleotide HYB0413 ([2]; 10 mg/kg i.v.)	kidney concentration, higher than that of Oligonucleotides HYB0412 and HYB0413 ([2]; 10 mg/kg i.v., highest kidney concentration)	urinary excretion rate [3]	degradation in the kidney ([4]; kidney tissue, PAGE after 5'-post labeling)	lung concentration ([2]; 10 mg/kg i.v., compared with HYB0411 and HYB0412)	tissue concentrations in the tissues examined (in general) ([2]; 10 mg/kg i.v., comparison among the three oligonucleotides)	bone marrow concentration ([2]; 12 hours after dosing, compared with HYB0411 and HYB0412, data not shown)	fecal excretion rate [3]	in vivo stability ([4]; b74 compared with Oligonucleotide HYB0411, b75 compared with control oligonucleotide)	absorption ([4]; compared with Oligonucleotide HYB0411)
5′-CTCTCGCACCCATCTCTCTCCTTCTGGGG-3′ (all phosphorothioate, sugars by position and methylation of C not given here) [Oligonucleotide HYB0411]	significantly higher	shorter	approximately 50%	40%	lowest	time-dependent degradation						
5′-CTCTCGCACCCATCTCTCTCCTTCT-3′ [Oligonucleotide HYB0413, reference compound]					highest		significantly higher concentrations	different from those of Oligonucleotide HYB0411 and Oligonucleotide HYB0412	higher concentrations	highest		
5′-CTCTCGCACCCATCTCTCTCCTTCTGTGT-3′ [Oligonucleotide HYB0412]	significantly higher		approximately 50%								superior in vivo stability	greater absorption
